Assays:
Experiment in all cases: relative viability (nuclei count vs DMSO), 5 days (fraction); higher = more cells survive
[1] = compound: Cc1nc(Nc2ncc(C(=O)Nc3c(C)cccc3Cl)s2)cc(N2CCN(CCO)CC2)n1 [Dasatinib] + NC(=O)Nc1cc(-c2cccc(F)c2)sc1C(=O)N[C@H]1CCCNC1 [AZD7762] (partner 0.2 µM)
Outline: (§1)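 Dosing by pin tool came one day after lung cancer cell lines were seeded in 1536-well plates, using either one drug or a fixed anchor-drug dose plus five library-drug doses (not always all listed) in √10 steps. After 5 days, nuclei were counted on 4× images. Relative viability is treated-well nuclei count divided by vehicle-well nuclei count, and values are medians of duplicate plates.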

[2] = compound: Cc1ccc(C(=O)Nc2cccc(C(F)(F)F)c2)cc1Nc1cncc(C(N)=O)c1 [ALW-II-49-7] + O=C(c1cc(Cc2n[nH]c(=O)c3ccccc23)ccc1F)N1CCN(C(=O)C2CC2)CC1 [Olaparib] (partner 8 µM)
Outline: as §1

[3] = compound: C1CC1C(=O)NC2=NNC3=C2C=CC(=C3)C4=CC(=CC=C4)C(=O)NC5CC5 [XMD13-2] + CCNC(=O)c1noc(-c2cc(C(C)C)c(O)cc2O)c1-c1ccc(CN2CCOCC2)cc1 [Luminespib] (partner 0.01 µM)
Outline: as §1

[4] = compound: C1CC1C(=O)NC2=NNC3=C2C=CC(=C3)C4=CC(=CC=C4)C(=O)NC5CC5 [XMD13-2] + CS(=O)(=O)N1CCN(Cc2cc3nc(-c4cccc5[nH]ncc45)nc(N4CCOCC4)c3s2)CC1 [Pictilisib] (partner 1 µM)
Outline: as §1

Cell Line	relative viability ([1]; first compound 0.005 µM)	relative viability ([1]; first compound 0.01581 µM)	relative viability ([1]; first compound 0.05 µM)	relative viability ([1]; first compound 0.1581 µM)	relative viability ([1]; first compound 0.5 µM)	relative viability ([2]; first compound 0.08 µM)	relative viability ([2]; first compound 0.253 µM)	relative viability ([2]; first compound 0.8 µM)	relative viability ([2]; first compound 2.53 µM)	relative viability ([2]; first compound 8 µM)	relative viability ([3]; first compound 0.05 µM)	relative viability ([3]; first compound 0.1581 µM)	relative viability ([3]; first compound 0.5 µM)	relative viability ([3]; first compound 1.581 µM)	relative viability ([3]; first compound 5 µM)	relative viability ([4]; first compound 0.05 µM)	relative viability ([4]; first compound 0.1581 µM)	relative viability ([4]; first compound 0.5 µM)	relative viability ([4]; first compound 1.581 µM)	relative viability ([4]; first compound 5 µM)
NCI-H2347	0.614	0.538	0.549	0.296	0.282	0.596	0.568	0.562	0.545	0.556	0.405	0.342	0.486	0.54	0.791	0.743	0.655	0.826	0.827	0.387
NCI-H2087	1.34	1.19	1.49	0.857	0.556	0.583	0.569	0.463	0.578	0.514	0.164	0.159	0.217	0.198	0.152	0.95	0.846	1.05	0.888	0.772
EPLC-272H	0.222	0.245	0.173	0.125	0.147	0.609	0.468	0.506	0.711	0.64	0.414	0.125	0.734	0.199	0.124	0.349	0.271	0.271	0.23	0.187
LXF-289	1.14	1.12	1.09	0.371	0.184	1.02	0.909	1.09	1.26	1.09	0.717	0.618	0.72	0.76	0.723	0.941	0.728	0.806	0.714	0.642
RERF-LC-KJ	1.06	0.824	0.889	0.761	0.6	0.988	1.06	0.874	0.856	0.725	1.32	1.29	1.22	1.14	1.1	0.57	0.558	0.435	0.571	0.5
NCI-H1755	0.424	0.33	0.296	0.25	0.215	0.888	0.942	0.913	0.798	0.627	0.441	0.502	0.419	0.44	0.433	0.548	0.411	0.48	0.315	0.496
PC-14	0.405	0.468	0.34	0.401	0.112	0.282	0.227	0.264	0.253	0.273	0.133	0.192	0.118	0.151	0.154	0.995	0.684	0.67	0.608	0.766
NCI-H322M	0.597	0.526	0.468	0.265	0.381	0.288	0.742	0.638	0.732	0.716	0.874	0.834	0.804	0.89	1.23	0.593	0.495	0.451	0.501	0.578

— the supplement of paper PMC10307832
